Measurements reported in paper PMC4444576, “Prospective performance evaluation of selected common virtual screening tools. Case study: Cyclooxygenase (COX) 1 and 2” (European Journal of Medicinal Chemistry, 2015).
Where two headings read alike, the source gives them in different places.

Assays:
[1] = molecular target: T1, ram seminal vesicle COX-1 (Ovis aries, UniProt P05979); assay: COX-1 inhibition assay (PGE2 EIA); format: biochemical; settings: triplicates; for inhibition at 20 µM: read-out: % inhibition at 20µM, COX-1
T1 construct: ram seminal vesicle COX-1 (1 U) (Sigma–Aldrich); purchased Sigma–Aldrich; host or cells: ram seminal vesicle (tissue of origin)
T1 sequence (P05979 25-600): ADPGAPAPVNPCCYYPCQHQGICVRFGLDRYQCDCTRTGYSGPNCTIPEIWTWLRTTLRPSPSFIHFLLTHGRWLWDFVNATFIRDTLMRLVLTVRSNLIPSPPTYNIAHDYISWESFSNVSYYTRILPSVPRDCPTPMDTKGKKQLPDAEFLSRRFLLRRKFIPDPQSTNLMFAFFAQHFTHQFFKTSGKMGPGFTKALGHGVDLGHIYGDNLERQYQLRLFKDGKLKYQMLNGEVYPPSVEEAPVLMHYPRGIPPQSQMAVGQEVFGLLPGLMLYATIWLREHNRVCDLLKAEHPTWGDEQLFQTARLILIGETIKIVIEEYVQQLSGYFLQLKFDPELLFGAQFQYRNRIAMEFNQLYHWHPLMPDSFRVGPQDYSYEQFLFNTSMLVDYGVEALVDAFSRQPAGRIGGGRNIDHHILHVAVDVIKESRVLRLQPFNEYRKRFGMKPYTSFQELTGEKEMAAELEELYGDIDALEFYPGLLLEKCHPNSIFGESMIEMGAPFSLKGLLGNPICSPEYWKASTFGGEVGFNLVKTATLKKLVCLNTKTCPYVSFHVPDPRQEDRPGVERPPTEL

[2] = molecular target: T2, human recombinant COX-2 (Homo sapiens, UniProt P35354); assay: COX-2 inhibition assay (PGE2 EIA); format: biochemical; settings: for inhibition at 20 µM: read-out: % inhibition at 20µM, COX-2
T2 construct: purchased Sigma–Aldrich
T2 sequence (P35354 18-604): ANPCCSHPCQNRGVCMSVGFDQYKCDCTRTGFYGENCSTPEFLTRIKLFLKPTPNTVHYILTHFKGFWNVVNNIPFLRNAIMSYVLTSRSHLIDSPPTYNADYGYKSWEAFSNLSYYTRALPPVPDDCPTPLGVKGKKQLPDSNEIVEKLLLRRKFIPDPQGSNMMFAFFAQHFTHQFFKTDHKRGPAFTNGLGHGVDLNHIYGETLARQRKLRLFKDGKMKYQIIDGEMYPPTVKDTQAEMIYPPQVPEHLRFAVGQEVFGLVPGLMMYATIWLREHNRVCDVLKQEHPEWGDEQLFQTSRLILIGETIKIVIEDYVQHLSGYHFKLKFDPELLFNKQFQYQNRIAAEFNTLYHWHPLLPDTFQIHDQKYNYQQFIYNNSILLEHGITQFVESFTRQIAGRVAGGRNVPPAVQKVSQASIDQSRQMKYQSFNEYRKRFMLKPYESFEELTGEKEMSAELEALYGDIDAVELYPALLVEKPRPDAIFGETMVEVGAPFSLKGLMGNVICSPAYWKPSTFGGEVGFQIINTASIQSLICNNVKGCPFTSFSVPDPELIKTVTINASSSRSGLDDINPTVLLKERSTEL

[3] = tested on: COX; assay: Biological testing for COX-inhibiting activity, overall outcome on both isoforms; format: biochemical; settings: for COX isoform selectivity: COX-1 versus COX-2
[4] = tested on: COX; settings: data from the literature, cited from earlier work
[5] = biological testing of this study

SMILES	inhibition at 20 µM [1]	inhibition at 20 µM ([2]; 20 µM, triplicates)	Activity [3, 5]	Activity [4]	further results
O=C(O)c1ccc(Cl)c(Cl)c1 [3,4-dichlorobenzoic acid]	-1.8 ± 14.3%	0.1 ± 3.3%	Inactive		
C#C[C@]1(O)CC[C@H]2[C@@H]3CCc4cc(OC)ccc4[C@H]3CC[C@@]21C [17α-ethinylestradiol-3-methylether]					% inhibition at 20µM, COX-1 [1]: 2.6 ± 11.9%; % inhibition at 20µM, COX-2 [2]: -10.9 ± 31.4%; Activity [3]: Inactive
C#C[C@]1(O)CC[C@H]2[C@@H]3CCc4cc(O)ccc4[C@H]3CC[C@@]21C [17α-ethinylestradiol]	0.4 ± 16.7%	-5.2 ± 11.6%	Inactive		
CC(C)Cc1ccc([C@H](C)C(=O)O)cc1 [(S)-ibuprofen]				Active [61]	
O=S(=O)([O-])c1ccc(N=Nc2ccc(O)cc2O)cc1.[Na+] [Acid orange 6]			Inactive		% inhibition at 20µM, COX-1 [1]: -1.2 ± 6.0%; % inhibition at 20µM, COX-2 ([2]; 20 µM, triplicates): -0.1 ± 5.6%
C=CCOc1ccc(CC(=O)O)cc1Cl [Alclofenac]				Active [40]	
NS(=O)(=O)c1cc(-c2nnn[nH]2)c(NCc2cccs2)cc1Cl [Azosemide]	-9.9 ± 25.6%	-1.1 ± 4.7%	Inactive		
O=S(=O)([O-])CCNc1ccc(S(=O)(=O)c2ccc(NCCS(=O)(=O)[O-])cc2)cc1.[Na+].[Na+] [Baludon]			Inactive		% inhibition at 20µM, COX-1 [1]: -8.4 ± 8.7%; % inhibition at 20µM, COX-2 ([2]; 20 µM, triplicates): -3.7 ± 15.4%
NS(=O)(=O)c1cc2c(cc1Cl)N=C(CSCc1ccccc1)NS2(=O)=O [Benzothiazide]	16.6 ± 18.6%	-7.4 ± 25.8%	Inactive		
COc1ccc2cc3[n+](cc2c1OC)CCc1cc2c(cc1-3)OCO2 [Berberin]				Inactive [50]	Activity ([4]; listed as Berberine): not by direct inhibition of the enzyme
CC(C)NCC(O)COc1ccc(COCCOC(C)C)cc1 (stereo not shown) [Bisoprolol]	-1.4 ± 7.7%	10.2 ± 7%	Inactive		
CC(C(=O)O)c1ccc2c(c1)[nH]c1ccc(Cl)cc12 (stereo not shown) [Carprofen]				Active [51]	
O=C(N[C@H](CO)[C@H](O)c1ccc([N+](=O)[O-])cc1)C(Cl)Cl [Chloramphenicol]	-1.7 ± 9.5%	10.7 ± 10.7%	Inactive		
CC(C)(Oc1ccc(Cl)cc1)C(=O)O [Clofibric acid]	36.4 ± 17.4%	7.1 ± 18.7%	Inactive		
C/C=C(/C(=C/C)c1ccc(OC(C)=O)cc1)c1ccc(OC(C)=O)cc1 [Dienestrol diacetate (5), Dienestrol diacetate]			Active		IC50 ([1]; average of at least two independent experiments, read-out: IC50 COX-1): 4.2 ± 1.5 µM; IC50 ([2]; average of at least two independent experiments, triplicates, read-out: IC50 COX-2): 2 ± 0.9 µM; COX isoform selectivity [3]: unselective COX-inhibitor; COX isoform selectivity ([3]; listed as dienestrol diactetate (5)): inhibited both isoforms
COCCCN1CCN(c2ccccc2OC)CC1 [Dimetholizine]	-15.1 ± 23.4%	-8.7 ± 8.2%	Inactive		
O=C(O)CCC(=O)c1ccc(-c2ccccc2)cc1 [Fenbufen]				Active [52]	
Cc1c(Nc2ncccc2C(=O)O)cccc1C(F)(F)F [Flunixin meglumine]				Active [53]	
CC/C(=C(/CC)c1ccc(OP(=O)(O)O)cc1)c1ccc(OP(=O)(O)O)cc1 [Fosfestrol]	29.1 ± 9.7%	26 ± 5%	Inactive		
NS(=O)(=O)c1cc(C(=O)O)c(NCc2ccco2)cc1Cl [Furosemid]					% inhibition at 20µM, COX-1 [1]: -1.07 ± 17.3%; % inhibition at 20µM, COX-2 [2]: 8.7 ± 8.9%; Activity [3]: Inactive
O=C(OCC(O)CO)c1ccccc1Nc1ccnc2cc(Cl)ccc12 (stereo not shown) [Glafenine]	3.7 ± 34.6%	3.5 ± 6%	Inactive		
COc1ccc2c(c1)c(CC(=O)O)c(C)n2C(=O)c1ccc(Cl)cc1 [Indometacin]				Active [54]	
